Laboratory results published in patent US9309276B2, “Synthetic lipid A derivative” (University of Georgia Research Foundation, Inc., priority 2007, dated 2016).

Test system: RAW 264.7 γNO(−) cells
Test: Cytokine induction and ELISAs in mouse macrophages (RAW 264.7 γNO(−) cells)
Assay type: cell-based
Conditions: for secretion of cytokines (TNF-α, IL-6, IP-10, IFN-β and IL-1β): Example III, data not shown; for Cytokine top value of dose-response curve, pro Il-1β: cell lysates; for Cytokine top value of dose-response curve, pro Il-1β / TNF-α and IFN-β production, dose response (in words) / Cytokine top value of dose-response curve, IFN-β / Cytokine top value of dose-response curve, IL-6 / Cytokine top value of dose-response curve, IP-10 / Cytokine top value of dose-response curve, RANTES / Cytokine top value of dose-response curve, TNF-α: 5.5 h; for Cytokine top value of dose-response curve, pro Il-1β / Cytokine top value of dose-response curve, IFN-β / Cytokine top value of dose-response curve, IL-6 / Cytokine top value of dose-response curve, IP-10 / Cytokine top value of dose-response curve, RANTES / Cytokine top value of dose-response curve, TNF-α: best-fit value ± std. error; for TNF-α and IFN-β production, dose response (in words) / Cytokine top value of dose-response curve, IFN-β / Cytokine top value of dose-response curve, IL-6 / Cytokine top value of dose-response curve, IP-10 / Cytokine top value of dose-response curve, RANTES / Cytokine top value of dose-response curve, TNF-α / Cytokine top value of dose-response curve, IL-1β: supernatant; for TNF-α and IFN-β production, dose response (in words): wide range of concentrations; for Cytokine top value of dose-response curve, IL-1β: 24 h, best-fit value ± std. error (# plateau not reached for LPS)
Protocol: Mouse macrophages (RAW 264.7 γNO(−) cells) were exposed over a wide range of concentrations to compounds 1-5 and E. coli 055:B5 LPS. After 5.5 hours, the supernatants were harvested and examined for mouse TNF-α and IFN-β using a commercial and in-house developed capture ELISA assay, respectively. Potencies (EC50, concentration producing 50% activity) and efficacies (maximal level of production) were determined by fitting the dose-response curves to a logistic equation using PRISM software. […] It has also been shown that removal of the KDO moieties by mild acidic treatment reduces cellular responses (Demchenko et al., J. Am. Chem. Soc. 2003, 125, 6103-6112).
Having established the EC50 values of TNF-α and IFN-β secretion by compounds 1-5 and E. coli 055:B5 LPS, attention was focused on IL-6, IP-10, RANTES, and IL-1β responses. Thus, the previously harvested supernatants were analyzed for these cytokines using capture ELISA assays (FIG. 4, Table 1). For IL-6, IP-10, and RANTES, a short incubation time of 5.5 hrs was sufficient for detection. To achieve significant IL-1β secretion, the incubation had to be extended to 24 hrs. […] IL-1β is expressed as a pro-protein (pro-IL-1β), which is cleaved by caspase-1 into its active form (IL-1β), which is then secreted. Indeed, analyzing IL-1β of the cell lysates by Western blotting confirmed that it was present as a pro-protein (data not shown). TNF-α is also produced as a pro-protein, which is proteolitically cleaved by tumor necrosis factor-α converting enzyme (TACE) (Skotnicki and Levin, Annu. Rep. Med. Chem. 2003, 38, 153-162; Duffy et al., Thromb. Haemost. 2003, 89, 622-631). […] Furthermore, for each of the synthetic compounds and LPS, EC50 values of secreted TNF-α and intracellular pro-IL-1β were very similar. However, EC50 values for secreted mature IL-1β were larger by as much as 100-fold.
RAW 264.7 γNO(−) cells were plated on the day of the exposure assay as 2×10^5 cells/well in 96-well tissue culture plates (Nunc). Cells were incubated with different stimuli for 5.5 and 24 hours in replicates of five. Culture supernatants were then collected, pooled, and stored frozen (−80° C.) until assayed for cytokine production. After removal of the supernatant, cells were lysed by adding PBS containing Tween 20 (0.01%) and BSA (1%) in the same volume as that of the supernatant and sonicating for 5 min. The cell lysates were pooled and stored frozen (−80° C.) until assayed for cytokine production.
All cytokine ELISAs were performed in 96-well MaxiSorp plates (Nunc). Cytokine DuoSet ELISA Development Kits (R&D Systems) were used for the cytokine quantification of mouse TNF-α, IL-6, IP-10, RANTES, and IL-1β according to the manufacturer's instructions. The absorbance was measured at 450 nm with wavelength correction set to 540 nm using a microplate reader (BMG Labtech). Concentrations of IFN-β in culture supernatants were determined as follows. ELISA MaxiSorp plates were coated with rabbit polyclonal antibody against mouse IFN-β (PBL Biomedical Laboratories). IFN-β in standards and samples was allowed to bind to the immobilized antibody. Rat anti-mouse IFN-β antibody (USBiological) was then added, producing an antibody-antigen-antibody “sandwich”. Next, horseradish peroxidase (HRP) conjugated goat anti-rat IgG (H+L) antibody (Pierce) and a chromogenic substrate for HRP 3,3′,5,5′-tetramethylbenzidine (TMB; Pierce) were added. After the reaction was stopped, the absorbance was measured at 450 nm with wavelength correction set to 540 nm. All cytokine values are presented as the means±SD of triplicate measurements, with each experiment being repeated three times.
Concentration-response data were analyzed using nonlinear least-squares curve fitting in Prism (GraphPad Software, Inc.). […] The Hillslope was set at 1 to be able to compare the EC50 values of the different inducers. […]

| SMILES | secretion of cytokines (TNF-α, IL-6, IP-10, IFN-β and IL-1β) | Cytokine top value of dose-response curve, pro Il-1β [pg/mL] | TNF-α and IFN-β production, dose response (in words) | Cytokine top value of dose-response curve, IFN-β [pg/mL] | Cytokine top value of dose-response curve, IL-6 [pg/mL] | Cytokine top value of dose-response curve, IP-10 [pg/mL] | Cytokine top value of dose-response curve, RANTES [pg/mL] | Cytokine top value of dose-response curve, TNF-α [pg/mL] | Cytokine top value of dose-response curve, IL-1β [pg/mL] |
| --- | --- | --- | --- | --- | --- | --- | --- | --- | --- |
| CCCCCCCCCCCCCCCC(=O)O[C@H](CCCCCCCCCCCC(C)C)CC(=O)N[C@H]1[C@H](OC[C@H]2O[C@H](OP(=O)(O)O)[C@H](NC(=O)C[C@H](O)CCCCCCCCCCCC(C)C)[C@@H](OC(=O)C[C@H](O)CCCCCCCCCCCCC)[C@@H]2O)O[C@H](CO)[C@@H](O)[C@@H]1O [Compound 103, 6-O-{2-Deoxy-2-[(R)-3-hexadecanoyloxy-15-methyl-hexadecanoylamino]-β-D-glucopyranosyl}-3-O—[(R)-3-hydroxy-hexadecanoyl]-2-deoxy-2-[(R)-3-hydroxy-15-methyl-hexadecanoylamino]-α-D-glucopyranose 1-phosphate] | did not lead to secretion of cytokines | – | – | – | – | – | – | – | – |
| CCCCCCCCCCCCCCCC(=O)O[C@H](CCCCCCCCCCCC(C)C)CC(=O)N[C@H]1[C@H](OC[C@H]2O[C@H](OP(=O)(O)O)[C@H](NC(=O)C[C@H](O)CCCCCCCCCCCC(C)C)[C@@H](O)[C@@H]2O)O[C@H](CO)[C@@H](O)[C@@H]1ONC(=O)C[C@H](O)CCCCCCCCCC(C)C [Compound 104, 6-O-{2-Deoxy-2-[(R)-3-hexadecanoyloxy-15-methyl-hexadecanoylamino]-3-O—[(R)-3-hydroxy-13-methyl-tetradecanoylamino]-β-D-glucopyranosyl}-2-deoxy-2-[(R)-3-hydroxy-15-methyl-hexadecanoylamino]-α-D-glucopyranose 1-phosphate] | did not lead to secretion of cytokines | – | – | – | – | – | – | – | – |
| CCCCCCCCCCCCCC(=O)OC(CCCCCCCCCCC)CC(=O)OC1C(NC(=O)CC(CCCCCCCCCCC)OC(=O)CCCCCCCCCCC)C(OCC2OC(OP(=O)(O)O)C(NC(=O)CC(O)CCCCCCCCCCC)C(OC(=O)CC(O)CCCCCCCCCCC)C2O)OC(CO)C1OP(=O)(O)O [Lipid A 1, 6-O-{2-Deoxy-2-[(R)-3-dodecanoyloxy-tetradecanoylamino]-3-O—[(R)-3-tetradecanoyloxy-tetradecanoyl]-β-D-glucopyranosyl}-2-deoxy-3-O—[(R)-3-hydroxy-tetradecanoyl]-2-[(R)-3-hydroxy-tetradecanoylamino]-α-D-glucopyranose 1,4′-bisphosphate] | – | 565 ± 25 | clear dose response curves | 724 ± 25 | 249 ± 29 | 6778 ± 214 | 5531 ± 214 | 3924 ± 179 | 92 ± 2 |
| CCCCCCCCCCCC(=O)OC(CCCCCCCCCCC)CC(=O)NC1C(OCC2OC(OP(=O)(O)O)C(NC(=O)CC(O)CCCCCCCCCCC)C(OC(=O)CC(O)CCCCCCCCC)C2O)OC(CO)C(OP(=O)(O)O)C1OC(=O)CC(CCCCCCCCC)OC(=O)CCCCCCCCCCC [Lipid A 2, 6-O-{2-Deoxy-3-O—[(R)-3-dodecanoyloxy-dodecanoyl]-2-[(R)-3-dodecanoyloxy-tetradecanoylamino]-β-D-glucopyranosyl}-2-deoxy-3-O—[(R)-3-hydroxy-dodecanoyl]-2-[(R)-3-hydroxy-tetredecanoylamino]-α-D-glucopyranose 1,4′-bisphosphate] | – | 587 ± 87 | clear dose response curves | 654 ± 37 | 299 ± 42 | 7207 ± 277 | 6851 ± 216 | 4223 ± 329 | 82 ± 2 |
| CCCCCCCCCCCCCCCC(=O)OC(CCCCCCCCCCC)CC(=O)NC1C(OP(=O)(O)O)OC(COC2OC(CO)C(OP(=O)(O)O)C(OC(=O)CC(CCCCCCCCC)OC(=O)CCCCCCCCCCC)C2NC(=O)CC(CCCCCCCCCCC)OC(=O)CCCCCCCCCCC)C(O)C1OC(=O)CC(O)CCCCCCCCC [Lipid A 4, 6-O-{2-Deoxy-3-O—[(R)-3-dodecanoyloxy-dodecanoyl]-2-[(R)-3-dodecanoyloxy-tetradecanoylamino]-β-D-glucopyranosyl}-2-deoxy-2-[(R)-3-hexadecanoyloxy-tetredecanoylamino]-3-O—[(R)-3-hydroxy-dodecanoyl]-α-D-glucopyranose 1,4′-bisphosphate] | – | 610 ± 35 | clear dose response curves | 710 ± 44 | 233 ± 12 | 7320 ± 415 | 5360 ± 263 | 4178 ± 250 | 86 ± 4 |
